From ChEMBL document CHEMBL1667775, “Design, synthesis and biological evaluation of new thalidomide analogues as TNF-α and IL-6 production inhibitors” (Bioorg Med Chem Lett, 2011)
Calls of active or inactive are those of the source. The calls are words filed in the database; no cut-off is given here.

Key:
PBMC [1] = test: Cytotoxicity against human PBMC at 1 to 100 uM after 48 hrs by flow cytometry; type: cell-based
PBMC [2] = test: Cytotoxicity against human PBMC at 1 to 100 uM after 48 hrs by propidium iodure labeling; type: cell-based
PBMC [3] = test: Antiinflammatory activity in human PBMC assessed as inhibition of LPS-induced IL-6 production at 100 uM after 48 hrs by ELISA; type: functional, cell-based
PBMC [4] = test: Antiinflammatory activity in human PBMC assessed as inhibition of LPS-induced TNFalpha production at 100 uM after 48 hrs by ELISA; type: functional, cell-based
PBMC [5] = test: Antiinflammatory activity in human PBMC assessed as inhibition of LPS-induced TNFalpha production at 1 to 10 uM after 48 hrs by ELISA; type: functional, cell-based
PBMC [6] = test: Antiinflammatory activity in human PBMC assessed as inhibition of LPS-induced IL-6 production at 1 to 10 uM after 48 hrs by ELISA; type: functional, cell-based
PBMC [7] = test: Antiinflammatory activity in human PBMC assessed as inhibition of LPS-induced IL-6 production at 1 to 100 uM after 48 hrs by ELISA; type: functional, cell-based
PBMC [8] = test: Antiinflammatory activity in human PBMC assessed as inhibition of LPS-induced TNFalpha production at 1 to 100 uM after 48 hrs by ELISA; type: functional, cell-based
PBMC [9] = test: Antiinflammatory activity in human PBMC assessed as inhibition of LPS-induced TNFalpha production after 48 hrs by ELISA; type: functional, cell-based

SMILES	Activity (PBMC [1])	Activity (PBMC [2])	Activity (PBMC [3])	Activity (PBMC [4])	Activity (PBMC [5])	Activity (PBMC [6])	Activity (PBMC [7])	Activity (PBMC [8])	Activity (PBMC [9])
Cc1ccc(S(=O)(=O)N2C(=O)c3cc4ccccc4n3C2=O)cc1	Non-toxic	Non-toxic	–	–	–	–	–	–	–
CCOC(=O)c1ccc(S(=O)(=O)CN2C(=O)C3Cc4ccccc4CN3S2(=O)=O)cc1 (centres undefined)	Non-toxic	Non-toxic	Active	Active	inactive	inactive	–	–	–
O=C(Nc1cccc(S(=O)(=O)N2CCN(c3ccccc3)CC2)c1)c1cc2cccnc2[nH]1	Non-toxic	Non-toxic	–	–	–	–	inactive	inactive	–
O=C(Nc1ccccc1)c1cc2cccnc2[nH]1	Non-toxic	Non-toxic	–	–	–	–	inactive	inactive	–
O=C1c2cc3cccnc3n2C(=O)N1S(=O)(=O)c1ccccc1	Non-toxic	Non-toxic	–	–	–	–	inactive	Active	–
O=C(Nc1cccc(S(=O)(=O)N2CCOCC2)c1)c1cc2cccnc2[nH]1	Non-toxic	Non-toxic	–	–	–	–	inactive	inactive	–
O=C(Nc1ccccc1)c1cc2cccnc2n1S(=O)(=O)c1ccccc1	Non-toxic	Non-toxic	–	–	–	–	Active	–	Dose-dependent effect
O=C(Nc1cccc(S(=O)(=O)N2CCSCC2)c1)c1cc2cccnc2[nH]1	Non-toxic	Non-toxic	–	–	–	–	inactive	inactive	–
O=C1C2Cc3ccccc3N2C(=O)N1S(=O)(=O)c1ccc2ccccc2c1 (centres undefined)	Non-toxic	Non-toxic	–	–	–	–	–	–	–
